In patent US20070073056A1, “4-Substituted Pyrazoline Compounds, their Preparation and Use as Medicaments” (LABORATORIOS DEL DR. ESTEVE, S.A., priority 2005, published 2007) one finds Inhibition, Antagonism and IC50 data, which are given here for 15 compounds.

Structures can show the parent of a compound that is named as a salt.

Assay [1] addresses CB1-receptor (UniProt P20272). In words: binding of the pyrazoline compounds to CB1-receptors (Pharmacological Methods, Part I). Details: other: 10^−7 M; other: 10^−8 M; species or system human or rat. The method, boiled down:
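Rat cerebellum membranes (male Wistar), 100 μg protein, competed against 1 nM [3H]-CP 55,940 in 50 mM Tris-HCl, 5 mM MgCl2, 1 mM EDTA, 0.5% BSA, pH 7.4; 1 h at 30 °C. Non-specific binding with 10 μM HU-210; filtration and scintillation counting, triplicates, non-linear regression.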

Assay [2] deals with recombinant human cannabinoid 1 receptor (CB1) (Homo sapiens, UniProt P21554). Briefly: [35S]GTPγS binding assay, antagonism to CB1-receptor (Pharmacological methods, part V). In kind it is biochemical. The note with it: compound at 1 μM against agonist WIN 55,212-2; 100% = effect of Rimonabant (1 μM); CHO membranes. Here is the method:
V. In vitro Determination of Antagonism to CB1-Receptor
Chinese hamster ovary (CHO) cells stably expressing recombinant human cannabinoid 1 receptor (CB1) were cultured in nutrient mixture Ham's F 12 supplemented with 10% heat-inactivated fetal bovine serum, 2 mM L-glutamine, 50 U/ml penicillin, 50 U/ml streptomycin and 0.5 mg/ml geneticin. In order to obtain cells, culture flasks were washed twice with phosphate buffered saline and scraped. Then, cells were collected by centrifugation (200×g, 10 min) and stored dry at −80° C. Cells were homogenized in ice-cold 20 mM HE PES, 10 mM EDTA (pH 7.5) and centrifuged at 40,000×g for 15 min at 4° C. The pellet was resuspended in 20 mM HEPES, 0.1 mM EDTA (pH 7.5) and centrifuged for 15 min at 4° C. The final pellet was resuspended in 20 mM HEPES, 0.1 mM EDTA (pH 7.5), and divided in aliquots and stored at −80° C. until use.
[^35S]GTPγS Binding Assay:
The reaction was performed in 96-well plates. […] The incubation was terminated by rapid filtration through Millipore Multiscreen glass fiber FB, and rinsed two-times with ice-cold assay buffer. Filter plates were dried and 30 μl of scintillation liquid was added. Radioactivity was determined using Wallac Microbeta Trilux. Each experiment was performed at least in duplicate.
The average of basal [35S]GTPγS binding was subtracted from all binding data.
The antagonism of the pyrazoline compounds of general formula I to the CB1-receptor was determined according to the method described in Pharmacological methods, part V (table 2).
For orientation: Binding of GTPγS marks nucleotide exchange on a G protein.

Assay [3] has as its target CB1-receptor (UniProt P20272). Briefly: binding of the pyrazoline compounds to CB1-receptors (Pharmacological Methods, Part I). Details: IC50; species or system human or rat. Particulars: radioligand [3H]-CP55940, read-out: IC50. The protocol:
I. In-vitro Determination of Affinity to CB1/CB2-Receptors
The in-vitro determination of the affinity of the inventive 4-substituted pyrazoline compounds to CB1/CB2-Rezeptors is carried out as described in the publication of Ruth A. Ross, Heather C. Brockie et al., “Agonist-inverse agonist characterisation at CB1 and CB2 cannabinoid receptors of L-759633, L759656 and AM630”, British Journal of Pharmacology, 126, 665-672, (1999), whereby the transfected human CB1 and CB2 receptors of Receptor Biology, Inc. are used. The radioligand used for both receptors is [^3H]-CP55940. The respective parts of the description is hereby incorporated by reference and forms part of the present disclosure.
Rat Cerebellum CB1 Binding
Binding affinity to CB1 receptor was evaluated according to a modification of the method described by Govaerts et al., Eur J Pharmac Sci 23, 233-243 (2004). The respective parts of the description is hereby incorporated by reference and forms part of the present disclosure.
Briefly, cerebellum from male wistar rats (250-300 g) were carefully dissected on ice and homogenates were prepared with Potter-Helveheim in a cold 50 mM Tris-HCl solution containing 5 mM MgCl2, 1 mM EDTA and 0.25 M sucrose, pH 7.4. The suspension was centrifuged at […] for 5 minutes. The supernatants were collected and centrifuged 50,000×g for 15 minutes. The resulting pellets were then resuspended in Tris-HCl buffer without sucrose, homogenized and incubated for 15 min at 37° C. in an orbital shaker bath and centrifuged again at 50,000×g for 15 min. Pellets were weighted, resuspended in Tris-HCl buffer without sucrose, homogenized with Ultraturrax at 13,500 rpm for 3×5 seconds and alicuoted in 0.9 ml volumes in Eppendorf tubes. Alicuotes were centrifuged at 20,800×g for 5 minutes, supernatants discarded and pellets were frozen at −80° C. until use. Total protein concentration was determined using the Bio-Rad Lowry method based kit. Competitive binding experiments were performed in presence of 1 nM [^3H]-CP 55,940 in siliconized glass tubes containing 100 μg protein/tube resuspended in 1 ml final volume of 50 mM Tris-HCl, 5 mM MgCl2, 1 mM EDTA, 0.5% (w/v) bovine serum albumin, pH 7.4. Compounds were present at various concentrations and the non specific binding was determined in the presence of 10 μM HU-210. After 1 hour incubation at 30° C., the suspension was rapidly filtered through 0.5% PEI pre-treated GF/B fiber filters on a 96-well harvester and washed 3 times with 3 ml ice-cold binding buffer without bovine serum albumin. Radioactivity on filters was measured with Wallac Winspectral 1414 counter by liquid scintillation in 6 ml Ecoscint H (National Diagnostics, U.K.). Assays were made in triplicates.
Binding data were analyzed by non-linear regression with the software GraphPad Prism Version 3.03.
The binding of the pyrazoline compounds of general formula I to CB1-receptors was determined according to the method described in the section Pharmacological Methods, Part I.

Chain of recombinant human cannabinoid 1 receptor (CB1) (P21554 whole entry): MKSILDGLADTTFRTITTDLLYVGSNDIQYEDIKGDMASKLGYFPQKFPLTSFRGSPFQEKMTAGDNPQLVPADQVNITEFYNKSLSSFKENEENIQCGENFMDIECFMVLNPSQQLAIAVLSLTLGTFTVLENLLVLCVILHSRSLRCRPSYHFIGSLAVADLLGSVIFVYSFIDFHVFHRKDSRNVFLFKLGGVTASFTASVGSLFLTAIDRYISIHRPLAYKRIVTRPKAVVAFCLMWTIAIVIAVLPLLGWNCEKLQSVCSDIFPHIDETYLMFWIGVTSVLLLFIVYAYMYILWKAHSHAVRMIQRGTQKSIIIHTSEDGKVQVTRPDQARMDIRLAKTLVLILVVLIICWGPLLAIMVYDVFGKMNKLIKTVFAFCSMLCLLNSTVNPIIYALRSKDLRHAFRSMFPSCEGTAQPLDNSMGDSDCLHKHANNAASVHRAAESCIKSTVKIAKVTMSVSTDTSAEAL

Consider `C[C@H]1C(C(=O)O)=NN(c2ccc(Cl)cc2Cl)[C@H]1c1ccc(Cl)cc1` (racemic) [Example 19, cis-5-(4-Chloro-phenyl)-1-(2,4-dichloro-phenyl)-4-methyl-4,5-dihydro-1H-pyrazole-3-carboxylic acid], for which the Inhibition in assay [1] (10^−7 M) is given as −3.6%; in assay [1] (10^−8 M, in %), −0.7. Moreover, the Antagonism in assay [2] is listed as −18%.

Regarding `C[C@H]1C(C(=O)NN2CCCCC2)=NN(c2ccc(Cl)cc2Cl)[C@H]1c1ccc(Br)s1` (relative stereo) [Example 70, cis-5-(5-Bromo-thiophen-2-yl)-1-(2,4-dichloro-phenyl)-4-methyl-4,5-dihydro-1H-pyrazole-3-carboxylic acid piperidin-1-ylamide], the Antagonism in assay [2] was determined as 81%.

By IC50 is commonly meant the concentration needed to halve the response being measured. As for `COc1ccc([C@H]2[C@@H](C)C(C(=O)NN3CC4CCCC4C3)=NN2c2ccc(Cl)cc2Cl)cc1.Cl` (relative stereo) [Example 277, cis-1-(2,4-dichlorophenyl)-N-(hexahydrocyclopenta[c]pyrrol-2(1H)-yl)-5-(4-methoxyphenyl)-4-methyl-4,5-dihydro-1H-pyrazole-3-carboxamide hydrochloride], the Inhibition in assay [1] (10^−7 M) was found to be 61.6%; in assay [1] (10^−8 M, in %), 17.9. For the same compound, the IC50 in assay [3] turned out to be 0.02 µM.

In the case of `COc1ccc([C@@H]2[C@H](C)C(C(=O)NN3CCc4ccccc43)=NN2c2ccc(Cl)cc2Cl)cc1` (relative stereo) [Example 279, cis-1-(2,4-dichlorophenyl)-N-(indolin-1-yl)-5-(4-methoxyphenyl)-4-methyl-4,5-dihydro-1H-pyrazole-3-carboxamide], the Inhibition came to 62.4% in assay [1] (10^−7 M) and 14.7 in assay [1] (10^−8 M, in %). The IC50 in assay [3] came out at 0.019 µM.

As for `C[C@@H]1C(C(=O)NN2CCCCC2)=NN(c2ccc(Cl)cc2Cl)[C@@H]1c1ccccc1` (relative stereo) [Example 375, cis-1-(2,4-dichlorophenyl)-4-methyl-5-phenyl-N-(piperidin-1-yl)-4,5-dihydro-1H-pyrazole-3-carboxamide], the IC50 in assay [3] stood at 0.14 µM. In addition, in assay [2], the Antagonism is on record as 58%.

For `C[C@@H]1C(C(=O)NN2CCCCC2)=NN(c2ccc(Cl)cc2Cl)[C@H]1c1ccccc1` (relative stereo) [Example 376, trans-1-(2,4-dichlorophenyl)-4-methyl-5-phenyl-N-(piperidin-1-yl)-4,5-dihydro-1H-pyrazole-3-carboxamide], in assay [3], the IC50 was determined as 0.0708 µM. For the same compound, the Antagonism in assay [2] is 75%.

Turning to `C[C@H]1C(C(=S)NN2CCCCC2)=NN(c2ccc(Cl)cc2Cl)[C@H]1c1ccc(Cl)cc1` (relative stereo) [Example 379, cis-5-(4-chlorophenyl)-1-(2,4-dichlorophenyl)-4-methyl-N-(piperidin-1-yl)-4,5-dihydro-1H-pyrazole-3-carbothioamide hydrochloride], the Inhibition in assay [1] (10^−7 M) was determined as 74.5%; in assay [1] (10^−8 M, in %) it was 27.0. For the same compound, the IC50 in assay [3] was 0.112 µM.

As to `COc1ccc([C@@H]2[C@H](C)C(C(=O)NN3CCCCC3)=NN2c2ccc(Cl)cc2Cl)cc1` (relative stereo) [Example 410, cis-1-(2,4-dichlorophenyl)-5-(4-methoxyphenyl)-4-methyl-N-(piperidin-1-yl)-4,5-dihydro-1H-pyrazole-3-carboxamide], the Inhibition was found to be 58.1% in assay [1] (10^−7 M) and 42.4 in assay [1] (10^−8 M, in %). The IC50 in assay [3] turned out to be 0.082 µM.

In the case of `CCOC(=O)C1=NN(c2ccc(Cl)cc2Cl)[C@@H](c2ccc(Cl)cc2)[C@@H]1C(F)(F)F` (relative stereo) [Example 416, trans-ethyl 5-(4-chlorophenyl)-1-(2,4-dichlorophenyl)-4-(trifluoromethyl)-4,5-dihydro-1H-pyrazole-3-carboxylate], the Inhibition was 93.5% in assay [1] (10^−7 M) and 41 in assay [1] (10^−8 M, in %). Also, the IC50 in assay [3] turned out to be 0.182 µM.

For the compound `C[C@@H]1C(C(=O)NN2CCCCC2)=NN(c2ccc(Cl)cc2Cl)[C@@H]1c1ccc(Br)cc1.Cl` (relative stereo) [Example 418, cis-5-(4-bromophenyl)-1-(2,4-dichlorophenyl)-4-methyl-N-(piperidin-1-yl)-4,5-dihydro-1H-pyrazole-3-carboxamide hydrochloride], the Inhibition in assay [1] (10^−7 M) was 62.6%; in assay [1] (10^−8 M, in %) it was 19.9. In assay [3], the IC50 was 0.036 µM.

Consider `CC1CCCC(NC(=O)C2=NN(c3ccc(Cl)cc3Cl)[C@H](c3ccc(Cl)cc3)[C@@H]2C)C1` (relative stereo) [Example 423, cis-5-(4-chlorophenyl)-1-(2,4-dichlorophenyl)-4-methyl-N-(3-methylcyclohexyl)-4,5-dihydro-1H-pyrazole-3-carboxamide], for which the Inhibition is 66.7% in assay [1] (10^−7 M) and 33.1 in assay [1] (10^−8 M, in %). The IC50 in assay [3] stood at 0.0455 µM.

For `CC1CCCCC1NC(=O)C1=NN(c2ccc(Cl)cc2Cl)[C@H](c2ccc(Cl)cc2)[C@@H]1C` (relative stereo) [Example 424, cis-5-(4-chlorophenyl)-1-(2,4-dichlorophenyl)-4-methyl-N-(2-methylcyclohexyl)-4,5-dihydro-1H-pyrazole-3-carboxamide], the Inhibition in assay [1] (10^−7 M) is 65.7%; in assay [1] (10^−8 M, in %), 39.3. Also, the IC50 in assay [3] stood at 0.0297 µM.

Turning to `C[C@@H]1C(C(=O)N[C@H]2CCCC[C@@H]2O)=NN(c2ccc(Cl)cc2Cl)[C@@H]1c1ccc(Cl)cc1` (single isomer, unassigned) [Example 129], the Inhibition is 72.3% in assay [1] (10^−7 M) and 11.6 in assay [1] (10^−8 M, in %). In addition, in assay [3], the IC50 was 0.069 µM.

For the compound `C[C@@H]1C(C(=O)NN2CCCCC2)=NN(c2ccc(Cl)cc2Cl)[C@@H]1c1ccc(Cl)cc1` (single isomer, unassigned) [Example 419, (−)-cis-5-(4-chlorophenyl)-1-(2,4-dichlorophenyl)-4-methyl-N-(piperidin-1-yl)-4,5-dihydro-1H-pyrazole-3-carboxamide], the Inhibition was 57.1% in assay [1] (10^−7 M) and 27.8 in assay [1] (10^−8 M, in %). Also, the IC50 in assay [3] is 0.0543 µM.

With `C[C@H]1C(C(=O)NN2CCCCCC2)=NN(c2ccc(Cl)cc2Cl)[C@H]1c1ccc(F)cc1.Cl` (stereo in doubt) [Example 227, cis-N-(azepan-1-yl)-1-(2,4-dichlorophenyl)-5-(4-fluorophenyl)-4-methyl-4,5-dihydro-1H-pyrazole-3-carboxamide hydrochloride], the Inhibition in assay [1] (10^−7 M) worked out at 65.3%; in assay [1] (10^−8 M, in %), 15.3. For the same compound, the IC50 in assay [3] came out at 0.122 µM.
